Data on 13 compounds can be found in patent US10202350B2, “MCT4 inhibitors for treating disease” (Vettore, LLC, priority 2015, dated 2019).

The structures appear in SMILES notation.

The target in data set [1] is T1, MCT4 (Homo sapiens (Human), UniProt O15427). In words: MCT4-mediated lactate transport in MDA-MB-231 breast cancer cells. Particulars: MDA-MB-231 cells, native MCT4; 50 mM L-lactate. The class given is cell-based. How it is done: 10 μL of a 30 mM DMSO stock of BCECF-AM ester (Life Technologies) is added and the cells are incubated at 37° C. for 5 min. The cells are pelleted (300 g, 5 min), washed once with 1 mL Tyrode's Solution, pH 7.4, re-pelleted (300 g, 5 min), and resuspended in 1 mL Tyrode's Solution, pH 7.4.
T1 sequence (O15427 whole entry, looked up): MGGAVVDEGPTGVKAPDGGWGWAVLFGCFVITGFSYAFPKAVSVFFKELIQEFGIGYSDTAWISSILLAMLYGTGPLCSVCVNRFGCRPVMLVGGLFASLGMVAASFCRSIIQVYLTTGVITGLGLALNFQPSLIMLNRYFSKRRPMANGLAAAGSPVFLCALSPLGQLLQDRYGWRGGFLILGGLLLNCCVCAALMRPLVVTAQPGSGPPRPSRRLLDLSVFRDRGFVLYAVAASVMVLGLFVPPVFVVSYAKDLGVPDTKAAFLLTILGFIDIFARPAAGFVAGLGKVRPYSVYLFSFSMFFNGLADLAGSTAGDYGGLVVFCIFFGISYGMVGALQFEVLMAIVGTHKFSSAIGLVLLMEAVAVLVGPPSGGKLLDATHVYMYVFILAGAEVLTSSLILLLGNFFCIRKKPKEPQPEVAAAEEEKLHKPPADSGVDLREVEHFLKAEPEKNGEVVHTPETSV
T1 sequence (P35613 whole entry partner, looked up): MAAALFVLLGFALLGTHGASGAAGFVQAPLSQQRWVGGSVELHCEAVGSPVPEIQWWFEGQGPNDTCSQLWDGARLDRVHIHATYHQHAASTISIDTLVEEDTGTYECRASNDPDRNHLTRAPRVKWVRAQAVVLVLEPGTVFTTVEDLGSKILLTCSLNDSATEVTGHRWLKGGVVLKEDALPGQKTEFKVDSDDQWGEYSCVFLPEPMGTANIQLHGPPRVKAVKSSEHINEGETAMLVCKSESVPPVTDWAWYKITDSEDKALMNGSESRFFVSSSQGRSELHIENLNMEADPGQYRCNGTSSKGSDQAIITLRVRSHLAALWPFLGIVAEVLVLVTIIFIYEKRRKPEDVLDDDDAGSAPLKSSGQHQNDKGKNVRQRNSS
2.5 μL BCECF-loaded cells, along with either 10 μL DMSO or 100×compound in DMSO, are added to 937.5 μL of Tyrode's Solution in a quartz 1.0 mL cuvette (PerkinElmer, B0631116). […] After establishing baseline BCECF fluorescence (around 10-20 s), 50 μL of 1 M sodium L-lactate (Sigma-Aldrich) is added to the cuvette (final concentration: 50 mM) and rapidly mixed. The time-dependent decrease in BCECF fluorescence (490/440 ratio) may be fit to an exponential decay curve (Prism GraphPad) to determine the rate of lactate transport.
Preparation of BCECF-loaded cells and lactate transport activity may be determined as described for Assay 1.

In another data set the target is MCT1 (Homo sapiens (Human), UniProt P53985). In words: MCT1-mediated lactate transport in BT20 breast cancer cells. Format: cell-based. Conditions: native MCT1, 10 mM L-lactate. An outline of the steps:
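BT20 cells loaded with BCECF-AM (5 min, 37 °C) were placed in Tyrode's Solution, pH 7.4, with compound or DMSO in a cuvette. After baseline, 10 mM L-lactate was added, and the transport rate came from an exponential fit to the fall in BCECF fluorescence (490/440 ratio).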

Data set [2] in a line: Metabolic stability in human liver microsomes. Format: in vitro ADME. Conditions: human liver microsomes 0.5 mg/mL, 2 μM compound; remaining percentage of parent at 60 min. The protocol:
(§1) Metabolic Stability Assays The following are assays that may be used to evaluate the metabolic stability of compounds of Formula (I) in human or mouse microsomes. 1. […] Two separated experiments were performed as follows. a) With NADPH: 10 μL of 20 mg/mL liver microsomes and 40 μL of 10 mM NADPH were added to the incubations. […] The final concentration of microsomes was 0.5 mg/mL. 3. The reaction was started with the addition of 4 μL of 200 μM control compound or test compound solutions. Verapamil was used as positive control in this study. The final concentration of test compound or control compound was 2 μM. 4. Aliquots of 50 μL were taken from the reaction solution at 0, 15, 30, 45 and 60 min. […] Samples were centrifuged at 3, 220 g for 40 minutes. Aliquot of 90 μL of the supernatant was mixed with 90 μL of ultra-pure H2O and then used for LC-MS/MS analysis. 5. Data analysis. All calculations were carried out using Microsoft Excel. Peak areas were determined from extracted ion chromatograms. The slope value, k, was determined by linear regression of the natural logarithm of the remaining percentage of the parent drug vs. incubation time curve. The in vitro half-life (in vitro t½) was determined from the slope value: in vitro t1/2=−(0.693)/k.

A short description of data set [3]: Metabolic stability in mouse liver microsomes. Format: in vitro ADME. Conditions: mouse liver microsomes 0.5 mg/mL, 2 μM compound; remaining percentage of parent at 60 min. The protocol: as §1
Data set [4] deals with T1, MCT4. The experiment in a line: Lactate transport in MCT4-expressing MDA-MB-453 breast cancer cells (BCECF). Format: cell-based. Particulars: MDA-MB-453 cells stably expressing MCT4; 50 mM L-lactate. The protocol:
Assay 1: Lactate Transport in MCT4-Expressing MDA-MB-453 Breast Cancer Cells. […] The following is an exemplary procedure for assaying MCT4 activity of the compounds of Formula (I). Preparing BCECF-Loaded Cells: […] The cells are pelleted (300 g, 5 min), washed once with 1 mL Tyrode's Solution, pH 7.4, re-pelleted (300 g, 5 min), and resuspended in 1 mL Tyrode's Solution, pH 7.4. Lactate Transport Assay: […] Fluorescence measurements are performed on a PerkinElmer LS55 fluorescence spectrometer with dual excitation wavelengths achieved using a filter wheel (FL Winlab program: Fast Filter; […] Emission 535). After establishing baseline BCECF fluorescence (around 10-20 s), 50 μL of 1 M sodium L-lactate (Sigma-Aldrich) is added to the cuvette (final concentration: 50 mM) and rapidly mixed.

The target of data set [5] is T1, MCT4. The experiment in a line: MCT4-mediated lactate transport in NCI-H358 lung adenocarcinoma cells. Format: cell-based. Conditions: native MCT4, 50 mM L-lactate. How it is done: Cells (˜7×10^6) are trypsinized (0.05% Trypsin-EDTA), pelleted (300 g, 5 min), and resuspended in 1 mL Tyrode's Solution, pH 7.4 (119 mM NaCl, 5 mM KCl, 25 mM HEPES, pH 7.4, 2 mM CaCl2, 2 mM MgCl2, 6 g/L glucose). 10 μL of a 30 mM DMSO stock of BCECF-AM ester (Life Technologies) is added and the cells are incubated at 37° C. for 5 min. The cells are pelleted (300 g, 5 min), washed once with 1 mL Tyrode's Solution, pH 7.4, re-pelleted (300 g, 5 min), and resuspended in 1 mL Tyrode's Solution, pH 7.4.
2.5 μL BCECF-loaded cells, along with either 10 μL DMSO or 100×compound in DMSO, are added to 937.5 μL of Tyrode's Solution in a quartz 1.0 mL cuvette (PerkinElmer, B0631116). Fluorescence measurements are performed on a PerkinElmer LS55 fluorescence spectrometer with dual excitation wavelengths achieved using a filter wheel (FL Winlab program: Fast Filter; Excitation 490/440; Emission 535). After establishing baseline BCECF fluorescence (around 10-20 s), 50 μL of 1 M sodium L-lactate (Sigma-Aldrich) is added to the cuvette (final concentration: 50 mM) and rapidly mixed. The time-dependent decrease in BCECF fluorescence (490/440 ratio) may be fit to an exponential decay curve (Prism GraphPad) to determine the rate of lactate transport.
Assay 2: MCT4-Mediated Lactate Transport in NCI-H358 Lung Adenocarcinoma Cells.
NCI-H358 lung adenocarcinoma cells may be used to measure MCT4 activity in cells with high native levels of MCT4 and low levels of MCT1 and are known to those with skill in the art. Preparation of BCECF-loaded cells and lactate transport activity may be determined as described for Assay 1.

MCT1, sequence (P53985 whole entry): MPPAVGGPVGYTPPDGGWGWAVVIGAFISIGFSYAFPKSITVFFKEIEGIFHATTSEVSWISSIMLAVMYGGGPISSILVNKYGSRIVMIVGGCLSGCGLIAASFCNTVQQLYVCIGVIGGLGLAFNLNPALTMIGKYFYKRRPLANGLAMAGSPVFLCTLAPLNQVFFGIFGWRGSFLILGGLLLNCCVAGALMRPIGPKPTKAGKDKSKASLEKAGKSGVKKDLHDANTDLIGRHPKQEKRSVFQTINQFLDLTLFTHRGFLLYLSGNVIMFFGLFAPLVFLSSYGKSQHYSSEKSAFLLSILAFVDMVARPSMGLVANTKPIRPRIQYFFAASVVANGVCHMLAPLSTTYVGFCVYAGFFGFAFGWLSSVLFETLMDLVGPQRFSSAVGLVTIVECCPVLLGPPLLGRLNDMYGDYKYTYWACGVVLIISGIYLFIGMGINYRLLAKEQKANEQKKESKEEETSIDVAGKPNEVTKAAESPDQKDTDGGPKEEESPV
MCT1, sequence (P35613 140-385 partner): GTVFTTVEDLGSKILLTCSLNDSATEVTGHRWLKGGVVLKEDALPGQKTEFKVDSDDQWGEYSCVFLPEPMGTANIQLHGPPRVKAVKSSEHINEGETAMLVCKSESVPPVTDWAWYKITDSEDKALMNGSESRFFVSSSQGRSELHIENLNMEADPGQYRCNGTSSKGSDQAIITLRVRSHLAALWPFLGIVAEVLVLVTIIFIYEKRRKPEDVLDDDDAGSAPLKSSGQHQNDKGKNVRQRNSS

Turning to `COc1cc(-c2cc(COC(C)(C)C(=O)O)nn2Cc2ccccc2Cl)cs1` [Example 66, 2-([1-[(2-chlorophenyl)methyl]-5-(5-methoxythiophen-3-yl)-1H-pyrazol-3-yl]methoxy)-2-methylpropanoic Acid], the IC50 against MCT4 [1] is 7.8 nM; on MCT1 (Table 3) it was 45000 nM. Moreover, the “Human microsome % 60 min” value in data set [2] is reported as 73%. Also, in data set [3], the “Mouse microsome % 60 min” value was 83%.

In turn, `COc1cccc(-c2cc(COC(C)(C)C(=O)O)nn2-c2ccccc2Cl)c1` [Example 57, 2-[[1-(2-chlorophenyl)-5-(3-methoxyphenyl)-1H-pyrazol-3-yl]methoxy]-2-methylpropanoic acid] returned an IC50 against MCT1 (Table 3) of more than 133000 nM. The “Human microsome % 60 min” value in data set [2] is on record as 80%. Further, the “Mouse microsome % 60 min” value in data set [3] was 100%.

For `COc1cccc(-c2c(C)c(COC(C)(C)C(=O)O)nn2Cc2ccccc2Cl)c1` [Example 54, 2-({1-[(o-Chlorophenyl)methyl]-5-(m-methoxyphenyl)-4-methyl-1H-pyrazol-3-yl}methoxy)-2-methylpropionic acid], the IC50 was 37 nM on MCT4 [1] and 27000 nM at MCT1 (Table 3). Moreover, the “Human microsome % 60 min” value in data set [2] is listed as 59%. Further, the “Mouse microsome % 60 min” value in data set [3] was 95%.

With `CCC(C)(OCc1cc(-c2cccc(OC)c2)n(Cc2ccccc2Cl)n1)C(=O)O` (centres unmarked) [Example 68, 2-([1-[(2-Chlorophenyl)methyl]-5-(3-methoxyphenyl)-1H-pyrazol-3-yl]methoxy)-2-methylbutanoic Acid], the IC50 amounted to 9.1 nM against MCT4 [1] and 26000 nM against MCT1 (Table 3). The “Human microsome % 60 min” value in data set [2] is 95%. Moreover, the “Mouse microsome % 60 min” value in data set [3] came out at 91%.

Consider `COc1ccc(-c2cc(COC(C)(C)C(=O)O)nn2Cc2ccccc2Cl)s1` [Example 64, 2-([1-[(2-Chlorophenyl)methyl]-5-(5-methoxythiophen-2-yl)-1H-pyrazol-3-yl]methoxy)-2-methylpropanoic Acid], for which the IC50 was 8.3 nM against MCT4 [1] and 45000 nM on MCT1 (Table 3). The “Human microsome % 60 min” value in data set [2] is recorded as 82%. In data set [3], the “Mouse microsome % 60 min” value was 84%.

Take `COc1cccc(-c2cc(COC(C)(C)C(=O)O)nn2Cc2ccccc2OC)c1` [Example 36, 2-[[5-(3-Methoxyphenyl)-1-[(2-methoxyphenyl)methyl]pyrazol-3-yl]methoxy]-2-methyl-propanoic acid]: the figures for the IC50 at MCT4 [1] and against MCT1 (Table 3) were 82 nM and 50000 nM, respectively. In data set [2], the “Human microsome % 60 min” value stood at 85%. For the same compound, the “Mouse microsome % 60 min” value in data set [3] was 99%.

As for `CC(C)(OCc1cc(-c2cccc(OC3CC3)c2)n(Cc2ccccc2Cl)n1)C(=O)O` [Example 39, 2-[[1-[(2-Chlorophenyl)methyl]-5-[3-(cyclopropoxy)phenyl]pyrazol-3-yl]methoxy]-2-methyl-propanoic acid], the IC50 is 5.4 nM against MCT4 [1] and 10000 nM at MCT1 (Table 3). Also, the “Human microsome % 60 min” value in data set [2] was found to be 89%. Moreover, in data set [3], the “Mouse microsome % 60 min” value came out at 88%.

Take `COc1cccc(-c2cc(COC(C)(C)C(=O)O)nn2Cc2ccccc2N(C)C)c1` [Example 38, 2-[[1-[[2-(Dimethylamino)phenyl]methyl]-5-(3-methoxyphenyl)pyrazol-3-yl]methoxy]-2-methyl-propanoic acid]: the figures for the IC50 against MCT4 [1] and against MCT1 (Table 3) were 48 nM and 60000 nM, respectively. The “Human microsome % 60 min” value in data set [2] is recorded as 56%. Moreover, the “Mouse microsome % 60 min” value in data set [3] is recorded as 61%.

Regarding `CC(C)COc1cccc(-c2cc(COC(C)(C)C(=O)O)nn2Cc2ccccc2Cl)c1` [Example 27, 2-[[1-[(2-Chlorophenyl)methyl]-5-(3-isobutoxyphenyl)pyrazol-3-yl]methoxy]-2-methyl-propanoic acid], the IC50 was found to be 1 nM against MCT4 [1] and 5600 nM on MCT1 (Table 3). For the same compound, in data set [2], the “Human microsome % 60 min” value was determined as 43%. Also, the “Mouse microsome % 60 min” value in data set [3] came out at 50%.

As for `COc1cccc(-c2cc(COC(C)(C)C(=O)O)nn2Cc2ccccc2Cl)c1` [Example 14, 2-[[1-[(2-Chlorophenyl)methyl]-5-(3-methoxyphenyl)pyrazol-3-yl]methoxy]-2-methyl-propanoic acid], the IC50 on MCT4 [1] was 30 nM; on MCT1 (Table 2), more than 100000 nM; against MCT1 (Table 3), more than 100000 nM; on MCT4 [4] it was 26 nM; against MCT4 [5] it was 44 nM. The “Human microsome % 60 min” value in data set [2] amounted to 82%. In addition, the “Mouse microsome % 60 min” value in data set [3] is 95%.

With `CC(C)Oc1cccc(-c2cc(COC(C)(C)C(=O)O)nn2Cc2ccccc2Cl)c1` [Example 35, 2-[[1-[(2-Chlorophenyl)methyl]-5-(3-isopropoxyphenyl)pyrazol-3-yl]methoxy]-2-methyl-propanoic acid], the IC50 is 5.2 nM against MCT4 [1] and 59000 nM against MCT1 (Table 3). In addition, the “Human microsome % 60 min” value in data set [2] stood at 67%. Also, the “Mouse microsome % 60 min” value in data set [3] was found to be 31%.

`COc1csc(-c2cc(COC(C)(C)C(=O)O)nn2Cc2ccccc2Cl)c1` [Example 65, 2-([1-[(2-Chlorophenyl)methyl]-5-(4-methoxythiophen-2-yl)-1H-pyrazol-3-yl]methoxy)-2-methylpropanoic Acid]: the results for the IC50 against MCT4 [1] and on MCT1 (Table 3) were 8 nM and 13000 nM, respectively. Moreover, in data set [2], the “Human microsome % 60 min” value is reported as 78%. Moreover, the “Mouse microsome % 60 min” value in data set [3] was 92%.

Take `CC(C)(OCc1cc(-c2ccccc2)n(Cc2cccc(Cl)c2)n1)C(=O)O` [Example 1, 2-[[1-[(3-Chlorophenyl)methyl]-5-phenyl-pyrazol-3-yl]methoxy]-2-methyl-propanoic Acid]: the figures for the IC50 at MCT1 (Table 2), at MCT4 [4] and on MCT4 [5] were 50000 nM, 340 nM and 140 nM, respectively.

Broadly, the IC50 is the concentration that gives 50% inhibition.
